Experimental data taken from ChEMBL document CHEMBL1201862, “PubChem BioAssay data set” (2004).
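These data come from cells grown in 96-well plates and exposed to compound for 48 hours at five concentrations. At the GI50, growth is halved.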 Activity calls are given as the source filed them. Rule as the data show it: active = GI50 up to about 1.1 µM and inactive = higher.

Experiments:
Assay in all cases: inhibition of tumour cell growth, NCI panel, 48 h
SK-MEL-5 = system: SK-MEL-5
CCRF-CEM = system: CCRF-CEM
KM12 = system: KM12
A549 = system: A549
U-251 = system: U-251
SF-539 = system: SF-539
NCI-H522 = system: NCI-H522
HCT-116 = system: HCT-116
COLO 205 = system: COLO 205
Malme-3M = system: Malme-3M
OVCAR-3 = system: OVCAR-3
A498 = system: A498
786-0 = system: 786-0
UO-31 = system: UO-31
M14 = system: M14
NCI-H460 = system: NCI-H460
TK-10 = system: TK-10
OVCAR-5 = system: OVCAR-5
HCT-15 = system: HCT-15
LXFL 529 = system: LXFL 529
K562 = system: K562
HOP-18 = system: HOP-18
NCI-H226 = system: NCI-H226
OVCAR-4 = system: OVCAR-4
XF498 = system: XF498
SK-OV-3 = system: SK-OV-3
IGROV-1 = system: IGROV-1
RPMI-8226 = system: RPMI-8226
UACC-257 = system: UACC-257
KM-20L2 = system: KM-20L2
HOP-62 = system: HOP-62
HL-60 = system: HL-60
HT-29 = system: HT-29
SNB-78 = system: SNB-78
CAKI-1 = system: CAKI-1
SK-MEL-2 = system: SK-MEL-2
M19-MEL = system: M19-MEL
OVCAR-8 = system: OVCAR-8
LOX IMVI = system: LOX IMVI
EKVX = system: EKVX
SF-295 = system: SF-295
RXF 631 = system: RXF 631
SW-620 = system: SW-620
SNB-19 = system: SNB-19
HOP-92 = system: HOP-92
SF-268 = system: SF-268
NCI-H23 = system: NCI-H23
SN12C = system: SN12C
UACC-62 = system: UACC-62
HCC 2998 = system: HCC 2998
DMS-114 = system: DMS-114
MOLT-4 = system: MOLT-4
ACHN = system: ACHN
DMS-273 = system: DMS-273
DLD-1 = system: DLD-1

NC1=NN(c2ccccc2)C(=O)C1C(=O)C(=O)Nc1cccc(C(F)(F)F)c1 (stereo not given)
GI50 (SK-MEL-5): > 100 µM (inactive)
GI50 (CCRF-CEM): > 100 µM (inactive)
GI50 (KM12): > 100 µM (inactive)
GI50 (A549): > 100 µM (inactive)
GI50 (U-251): > 100 µM (inactive)
GI50 (SF-539): > 100 µM (inactive)
GI50 (NCI-H522): > 100 µM (inactive)
GI50 (HCT-116): > 100 µM (inactive)
GI50 (COLO 205): > 100 µM (inactive)
GI50 (Malme-3M): > 100 µM (inactive)
GI50 (OVCAR-3): > 100 µM (inactive)
GI50 (A498): > 100 µM (inactive)
GI50 (786-0): > 100 µM (inactive)
GI50 (UO-31): > 100 µM (inactive)
GI50 (M14): > 100 µM (inactive)
GI50 (NCI-H460): > 100 µM (inactive)
GI50 (TK-10): > 100 µM (inactive)
GI50 (OVCAR-5): > 100 µM (inactive)
GI50 (HCT-15): > 100 µM
GI50 (LXFL 529): 67.1 µM (inactive)
GI50 (K562): 86.1 µM (inactive)
GI50 (HOP-18): 67.9 µM (inactive)
GI50 (NCI-H226): > 100 µM (inactive)
GI50 (OVCAR-4): > 100 µM (inactive)
GI50 (XF498): > 100 µM (inactive)
GI50 (SK-OV-3): > 100 µM (inactive)
GI50 (IGROV-1): > 100 µM (inactive)
GI50 (RPMI-8226): > 100 µM (inactive)
GI50 (UACC-257): > 100 µM (inactive)
GI50 (KM-20L2): > 100 µM (inactive)
GI50 (HOP-62): > 100 µM (inactive)
GI50 (HL-60): 89.3 µM (inactive)
GI50 (HT-29): > 100 µM (inactive)
GI50 (SNB-78): > 100 µM (inactive)
GI50 (CAKI-1): > 100 µM (inactive)
GI50 (SK-MEL-2): > 100 µM (inactive)
GI50 (M19-MEL): > 100 µM (inactive)
GI50 (OVCAR-8): > 100 µM (inactive)
GI50 (LOX IMVI): > 100 µM (inactive)
GI50 (EKVX): > 100 µM (inactive)
GI50 (SF-295): > 100 µM (inactive)
GI50 (RXF 631): > 100 µM (inactive)
GI50 (SW-620): > 100 µM (inactive)
GI50 (SNB-19): > 100 µM (inactive)
GI50 (HOP-92): 23.7 µM (inactive)
GI50 (SF-268): > 100 µM (inactive)
GI50 (NCI-H23): > 100 µM (inactive)
GI50 (SN12C): > 100 µM (inactive)
GI50 (UACC-62): > 100 µM (inactive)
GI50 (HCC 2998): > 100 µM (inactive)
GI50 (DMS-114): > 100 µM (inactive)
GI50 (MOLT-4): > 100 µM (inactive)
GI50 (ACHN): > 100 µM (inactive)
GI50 (DMS-273): > 100 µM (inactive)
GI50 (DLD-1): > 100 µM (inactive)
